# Measured values from US12552752B2, “Atropisomers of pyridazinone derivatives as herbicides” (FMC Corporation, priority 2020, dated 2026).
# Several values for one entry are separate records, joined by “and”; a condition that tells them apart may be missing. Equal values may be shown once.
# Tests used:
# Format in all cases: in vivo
# [1] = system: barnyardgrass (BYG, Echinochloa crus-galli); assay: Test A postemergence, barnyardgrass; conditions: POST, 0 to 100 scale, approximately 10 d
# Source text: (§1) Seeds of plant species selected from barnyardgrass (BYG, Echinochloa crus-galli), kochia (KOC, Kochia scoparia), ragweed (common ragweed, Ambrosia elatior), ryegrass, Italian (RGI, Lolium multiflorum), foxtail, giant (FTI, Setaria faberii), foxtail, green (Setaria viridis) and pigweed (PWR, Amaranthus retroflexus) were planted into a blend of loam soil and sand and treated preemergence with a directed soil spray using test chemicals formulated in a non-phytotoxic solvent mixture which included a surfactant. At the same time, plants selected from these weed species and also wheat (WWT, Triticum aestivum), corn (CPI, Zea mays), blackgrass (BKG, Alopecurus myosuroides) and galium (GAL, catchweed bedstraw, Galium aparine) were planted in pots containing the same blend of loam soil and sand and treated with postemergence applications of test chemicals formulated in the same manner Plants ranged in height from 2 to 10 cm and were in the one- to two-leaf stage for the postemergence treatment. Treated plants and untreated controls were maintained in a greenhouse for approximately 10 d, after which time all treated plants were compared to untreated controls and visually evaluated for injury. Plant response ratings, summarized in Tables 1-4, are based on a 0 to 100 scale where 0 is no effect and 100 is complete control. A dash (−) response means no test result. The ratings are followed by a letter representing the symptomology where S is Albinism, C is Chlorosis, G is Growth Inhibition and E is Emergence.
# [2] = system: ryegrass, Italian (RGI, Lolium multiflorum); assay: Test A preemergence, Italian ryegrass; conditions: PRE, 0 to 100 scale, approximately 10 d
# Source text: as §1
# [3] = system: ragweed (common ragweed, Ambrosia elatior); assay: Test A preemergence, ragweed; conditions: PRE, 0 to 100 scale, approximately 10 d
# Source text: as §1
# [4] = system: ryegrass, Italian (RGI, Lolium multiflorum); assay: Test A postemergence, Italian ryegrass; conditions: POST, 0 to 100 scale, approximately 10 d
# Source text: as §1
# [5] = system: foxtail, giant (FTI, Setaria faberii); assay: Test A preemergence, giant foxtail; conditions: PRE, 0 to 100 scale, approximately 10 d
# Source text: as §1
# [6] = system: kochia (KOC, Kochia scoparia); assay: Test A postemergence, kochia; conditions: POST, 0 to 100 scale, approximately 10 d
# Source text: as §1
# [7] = system: wheat (WWT, Triticum aestivum); assay: Test A postemergence, wheat; conditions: POST, 0 to 100 scale, approximately 10 d
# Source text: as §1
# [8] = system: pigweed (PWR, Amaranthus retroflexus); assay: Test A postemergence, pigweed; conditions: POST, 0 to 100 scale, approximately 10 d
# Source text: as §1
# [9] = system: foxtail, giant (FTI, Setaria faberii); assay: Test A postemergence, giant foxtail; conditions: POST, 0 to 100 scale, approximately 10 d
# Source text: as §1
# [10] = system: pigweed (PWR, Amaranthus retroflexus); assay: Test A preemergence, pigweed; conditions: PRE, 0 to 100 scale, approximately 10 d
# Source text: as §1
# [11] = system: blackgrass (BKG, Alopecurus myosuroides); assay: Test A postemergence, blackgrass; conditions: POST, 0 to 100 scale, approximately 10 d
# Source text: as §1
# [12] = system: galium (GAL, catchweed bedstraw, Galium aparine); assay: Test A postemergence, galium; conditions: POST, 0 to 100 scale, approximately 10 d
# Source text: as §1
# [13] = system: ragweed (common ragweed, Ambrosia elatior); assay: Test A postemergence, ragweed; conditions: POST, 0 to 100 scale, approximately 10 d
# Source text: as §1
# [14] = system: kochia (KOC, Kochia scoparia); assay: Test A preemergence, kochia; conditions: PRE, 0 to 100 scale, approximately 10 d
# Source text: as §1
# corn (CPI, Zea mays) = assay: Test A postemergence, corn; conditions: POST, 0 to 100 scale, approximately 10 d
# Source text: as §1
# [15] = system: barnyardgrass (BYG, Echinochloa crus-galli); assay: Test A preemergence, barnyardgrass; conditions: PRE, 0 to 100 scale, approximately 10 d
# Source text: as §1
# [16] = 16 g ai/ha, listed as drawing 32
# [17] = 62 g ai/ha, listed as drawing 32
# [18] = 125 g ai/ha, listed as drawing 32
# [19] = 31 g ai/ha, listed as drawing 32
# [20] = 125 g ai/ha, listed as drawing 28
# [21] = 31 g ai/ha, listed as drawing 28
# [22] = 31 g ai/ha, listed as drawing 25
# [23] = 125 g ai/ha, listed as drawing 25
compound,measurement,setting,value
CCC(=O)Oc1c(Cl)nn(C)c(=O)c1-c1c(C)ccc2ccccc12 (racemic) [5 (Enantiomer 5B)],Plant response rating BYG,[1]; [16],30 S
same,Plant response rating BYG,[1]; [17],40 S
same,Plant response rating BYG,[1]; [18],80 S and 90 S
same,Plant response rating RGI,[2]; [17],10 S
same,Plant response rating RWC,[3]; [16],20 S
same,Plant response rating RWC,[3]; 31 g ai/ha,70 S and 50 S
same,Plant response rating RWC,[3]; [17],70 S
same,Plant response rating RWC,[3]; [18],100 C and 90 C
same,Plant response rating RGI,[4]; [16],40 C
same,Plant response rating RGI,[4]; [19],70 C and 80 C
same,Plant response rating RGI,[4]; [17],80 C
same,Plant response rating FTI,[5]; [17],30 S
same,Plant response rating KOC,[6]; [16],50 S
same,Plant response rating KOC,[6]; [17],70 S
same,Plant response rating KOC,[6]; [18],80 S and 90 S
same,Plant response rating WWT,[7]; [16],0
same,Plant response rating WWT,[7]; [17],10 S
same,Plant response rating WWT,[7]; [18],50 S
same,Plant response rating PWR,[8]; [16],90 S
same,Plant response rating PWR,[8]; [18],100 S
same,Plant response rating FTI,[9]; [16],20 S
same,Plant response rating FTI,[9]; [19],60 S and 50 S
same,Plant response rating FTI,[9]; [17],60 S
same,Plant response rating FTI,[9]; [18],90 S
same,Plant response rating PWR,[10]; [16],0
same,Plant response rating PWR,[10]; [17],60 G
same,Plant response rating BKG,[11]; [16],20 S
same,Plant response rating BKG,[11]; [17],40 G
same,Plant response rating BKG,[11]; [18],50 S and 80 S
same,Plant response rating GAL,[12]; [19],90 S and 100 S
same,Plant response rating RWC,[13]; [16],90 S
same,Plant response rating RWC,[13]; [18],100 S and 90 S
same,Plant response rating KOC,[14]; [17],50 S
same,Plant response rating KOC,[14]; [18],70 S and 50 S
Cc1ccc2ccccc2c1-c1c(O)c(Cl)nn(C)c1=O (racemic) [3 (Enantiomer 3B)],Plant response rating CPI,"corn (CPI, Zea mays); 1000 g ai/ha",50 S
same,Plant response rating BYG,[1]; 1000 g ai/ha,90 S
same,Plant response rating RGI,[2]; 1000 g ai/ha,100 S
same,Plant response rating RGI,[4]; [20],100 S
same,Plant response rating RGI,[4]; 1000 g ai/ha,100 S
same,Plant response rating FTI,[5]; [20],100 C
same,Plant response rating FTI,[5]; 1000 g ai/ha,100 C
same,Plant response rating KOC,[6]; 1000 g ai/ha,100 C
same,Plant response rating WWT,[7]; [20],30 S
same,Plant response rating WWT,[7]; 1000 g ai/ha,90 S
same,Plant response rating PWR,[8]; [21],100 C
same,Plant response rating PWR,[8]; 1000 g ai/ha,100 C
same,Plant response rating FTI,[9]; [20],90 S
same,Plant response rating FTI,[9]; 1000 g ai/ha,100 S
same,Plant response rating PWR,[10]; [21],90 C
same,Plant response rating PWR,[10]; 1000 g ai/ha,100 C
same,Plant response rating BKG,[11]; [21],0
same,Plant response rating BKG,[11]; 1000 g ai/ha,80 S
same,Plant response rating GAL,[12]; [21],100 C 100 C 100 C 100 C 100 C
same,Plant response rating GAL,[12]; [20],100 C 100 C 100 C 100 C 100 C
same,Plant response rating GAL,[12]; 1000 g ai/ha,100 C 100 C 100 C 100 C 100 C
same,Plant response rating RWC,[13]; [21],100 C
same,Plant response rating RWC,[13]; 1000 g ai/ha,90 S
same,Plant response rating BYG,[15]; [21],80 S
same,Plant response rating BYG,[15]; 1000 g ai/ha,100 C
same,Plant response rating KOC,[14]; [21],10 S
same,Plant response rating KOC,[14]; 1000 g ai/ha,100 C
"Cc1ccc2ccc(C)c(-c3c(O)c(Cl)nn(C)c3=O)c2c1 (single isomer, unassigned) [2 (Enantiomer 2A)]",Plant response rating CPI,"corn (CPI, Zea mays); [22]",10 G
same,Plant response rating CPI,"corn (CPI, Zea mays); 125 g ai/ha",30 G
same,Plant response rating BYG,[1]; [22],20 C
same,Plant response rating BYG,[1]; [23],30 C
same,Plant response rating RGI,[2]; [22],20 G
same,Plant response rating RGI,[2]; [23],20 G
same,Plant response rating RGI,[4]; [22],30 S
same,Plant response rating RGI,[4]; [23],40 S
same,Plant response rating FTI,[5]; [22],20 S
same,Plant response rating FTI,[5]; [23],40 S
same,Plant response rating KOC,[6]; 31 g ai/ha,60 S
same,Plant response rating KOC,[6]; [23],80 S
same,Plant response rating WWT,[7]; [22],0
same,Plant response rating WWT,[7]; [23],0
same,Plant response rating PWR,[8]; 31 g ai/ha,100 C 100 C 100 C 100 C
same,Plant response rating PWR,[8]; 125 g ai/ha,100 C 100 C 100 C 100 C
same,Plant response rating FTI,[9]; [22],30 S
same,Plant response rating FTI,[9]; [23],60 S
same,Plant response rating PWR,[10]; 31 g ai/ha,100 C 100 C 100 C 100 C
same,Plant response rating PWR,[10]; 125 g ai/ha,100 C 100 C 100 C 100 C
same,Plant response rating BKG,[11]; [22],0
same,Plant response rating BKG,[11]; [23],20 S
same,Plant response rating GAL,[12]; [22],100 C 100 C
same,Plant response rating GAL,[12]; [23],100 C 100 C
same,Plant response rating RWC,[13]; [22],90 S 90 S
same,Plant response rating RWC,[13]; [23],90 S 90 S
same,Plant response rating BYG,[15]; [22],0
same,Plant response rating BYG,[15]; [23],50 G
same,Plant response rating KOC,[14]; [22],10 C
same,Plant response rating KOC,[14]; [23],80 S
